This is an account of results in paper PMC7503308, “A Novel Urease Inhibitor of Ruminal Microbiota Screened through Molecular Docking” (International Journal of Molecular Sciences, 2020).

Data set [1] has as its system ruminal microbial urease. The experiment in a line: Urease inhibition assay (Berthelot alkaline phenol-hypochlorite method). The data set is classed as biochemical, rumen bacteria of Chinese Holstein dairy cows. The conditions noted are these: ruminal microbial urease, 37 °C, 30 min, pH 7.5. Here is the method:
Rumen fluid samples were collected from five Chinese Holstein dairy cows with permanent rumen fistula 3 h after feeding a total mixed ration in the morning. All the operations were conducted in accordance with the protocol approved by the Animal Care and Use Committee for Livestock of the Institute of Animal Sciences, Chinese Academy of Agricultural Sciences (Permit Number: IAS2019-14, Permit Date: 22-03-2019). All rumen fluid samples were filtered by a six layer sterilized medical gauze and mixed in a sterilized beaker before being evenly distributed into different 50 mL tubes and stored in liquid nitrogen. The deforested samples were centrifuged at 12,000× g for 10 min at 4 °C, then the supernatant was removed from the tube. The remaining sediments were resuspended in a HEPES buffer solution (pH 7.5, 50 mM) and then centrifuged at 12,000× g for 10 min at 4 °C. The supernatant was discarded and the remaining rumen bacteria were collected and stored at −80 °C for later urease extraction. All the sample handing processes were conducted on an ice bath. […]
In vitro urease inhibition screening assays were conducted to further narrow the virtual screened compounds for further IC50 determination and kinetic characterization. […] The ammonia that was produced was measured using 50 μL of a phenol reagent containing 10.0 g/L phenol and 50 mg/L of sodium nitroprusside, and 50 μL of alkali reagent containing 5 g/L sodium hydroxide and 8.4 mL/L of sodium hypochlorite solution, at 37 °C for 30 min. The absorbance of each well was measured at 625 nm by a micro plate spectrophotometer (Thermo Scientific Varioskan Flash G-282, Thermo Scientific, Waltham, MA, USA). The endogenous nitrogen (blank) was measured by adding a 70 μL HEPES buffer (pH 7.5, 50 mM) containing no urea and 20 μL methanol solution in the first 30 min of the reaction mixture. The 100% initial activity was determined by adding a 15 μL methanol solution in the first 30 min of the reaction mixture. […]

Data set [2] concerns ruminal microbiota. The experiment in a line: Ruminal microbial fermentation in vitro (six generations): urea and NH3-N. It is filed as cell-based, rumen fluid of Chinese Holstein dairy cows. The conditions noted are these: 100 μM compound, 24 h, p < 0.01. Here is the method:
Seven solutions were prepared for the anaerobic media as solution A (3 g/L K2HPO4), solution B (0.6 g/L CaCl2, 3 g/L K2HPO4, 6 g/L NaCl, 0.6 g/L MgSO4·7H2O), solution C (6 g/L K2HPO4), solution D (1.6 g/L CaCl2·2H2O, 6 g/L K2HPO4, 12 g/L NaCl, 2.5 g/L MgSO4·7H2O), trace element solution (300 mg/L H3BO3, 100 mg/L ZnSO4·7H2O, 30 mg/L MnCl2·4H2O, 20 mg/L CoCl2·6H2O, 30 mg/L Na2MoO4·2H2O, 10 mg/L Na2SeO3, 20 mg/L NiCl2, 10 mg/L CuCl2·2H2O, 150 mg/L FeCl2·4H2O), volatile fatty acid (VFA) mixed solution (17 mL acetic acid, 6 mL propionic acid, 4 mL butyric acid, 1 mL n-valeric acid, 1 mL isovaleric acid, and 1 mL isobutyric acid), and hemin solution, prepared by diluting 50 mg of Haemon in NaOH (1 N solution) and made up to 100 mL with distilled water. Each liter of anaerobic media contained 30 mL of autoclaved rumen fluid supernatant, 0.5 g of glucose, 0.5 g of soluble starch, 0.5 g of cellobiose, 0.5 g of maltose, 0.5 g of […], 0.5 g of tripticase, 0.5 g of yeast extract, 8 g of NaHCO3, 0.1 mL of trace elements solution, 15 mL solution A, 15 mL solution B, 0.5 g of cysteine hydrochloride, 10 mL of hemin solution, 3.1 mL of VFA mixed solution, and 1 mg resazurin. The anaerobic urea solution was prepared using an anaerobic glove box, by dissolving 2.5 g of urea in a 50 mL anaerobic diluent. This diluent consisted of 3.8 mL of salt solution C, 3.8 mL of salt solution D, 5 mL of 8% sodium Na2CO3, 1 mL of 0.1% resazurin, 0.5 g of cysteine hydrochloride dissolved in distilled water and made up to 1000 mL and distributed into 50 mL anaerobic bottles. All the anaerobic bottles were sterilized by autoclave. Prior to the inoculation, fresh frozen rumen fluid samples, pretreated as described previously, were removed from the freezer, thawed, homogenized, and used immediately. […] Chromatographic gradients were referenced to the paper.

In data set [3] the test system is Caco-2 cells. The experiment in a line: CCK8 colorimetric cytotoxicity assay. The data set is classed as cell-based. The conditions noted are these: concentration below 100 μM, 24 h, p > 0.05. Here is the method: A standard CCK8 colorimetric assay was employed for the evaluation of cytotoxic activity of compound 6238-0047 using 96-well flat bottomed microplates. Dulbecco’s Modified Eagle Medium (GIBCO) with 10% FBS (fetal bovine serum, FBS, Gibco) and 1% NEAA was used for the culturing of Caco-2 cells (ATCC, Manassas, VA, USA), and the medium was supplemented with 100 μg/mL of streptomycin and 100 IU/mL of penicillin. The medium was kept in 5% CO2 and incubated at 37 °C. The exponentially grown cells were harvested, counted using a hemocytometer and diluted with the medium. The cell culture was diluted to a density of 1 × 10^5 cells/mL and transferred into a 96-well plate with 135 μL or […]. The medium was incubated for 24 h for cell attachment. Following this, 15 μL of compounds with different final concentrations of 1, 10, 25, 50, and 100 μM in the experimental group and fresh medium as a control group, were added to a plate with five replicates for each. After 24 h of incubation at 37 °C and kept in 5% CO2, 15 μL of CCK8 was added to each well and after 2 h the absorbance was measured at 450 nm using a microplate reader. The formula for calculating the relative cell viability was as follows:Relative cell viability (%) = absorbance of experimental group/absorbance of control group × 100%
In general terms: Formazan colour is commonly taken as a measure of viable cells.

Data set [4] deals with H. pylori urease. On the set-up: method as in PMID 23567958. The following applies: cited from earlier work.
In data set [5] the test system is jack bean urease. Set-up: method as in PMID 17418881. The conditions noted are these: cited from earlier work.
On the set-up of data set [6]: method as in PMID 19050709. The following applies: human patients; cited from earlier work.
For data set [7], the system named is ruminal microbiota. The following applies: cited from earlier work.
In data set [8] the test system is rumen microbiota. On the set-up: method as in PMID 10682821. The following applies: cows with permanent rumen fistula, cited from earlier work.

SMILES strings stand for the structures. Read-outs that look alike come from different tables or passages of the source.

As to `CC(=O)NO` [AHA, acetohydroxamic acid, reference compound], the IC50 in data set [1] is 158 µM; in data set [4] it was 18.2 µM; in data set [5], 60 µM. Also, the “Amount of urea degradation vs control group” value in data set [2] (16.65 mM urea) is given as “significantly lowered the amount of urea degradation”. Also, the “NH3-N concentration / production vs control group” value in data set [2] is on record as “significantly lower than the control group”. In addition, the “Relative cell viability of Caco-2 cell culture” value in data set [3] is reported as “no significant influence”. The “Patients with dermatological, neurological or hematological issues necessitating discontinuation of therapy” value in data set [6] was “more than 20%”. In data set [7], the AHA degradation is on record as 100%.

For the compound `CCCCNP(N)(N)=S` [NBPT, N-(n-butyl) thiophosphoric triamide], the “Ruminal ammonia nitrogen production vs control group” value in data set [8] (fifteenth day of treatment) was “tended to approach the control group”; in data set [8] (second day of treatment) it was “lower than that of the control group”.

By IC50 is commonly meant the midpoint of a concentration-inhibition curve.
